Data: ChEMBL document CHEMBL1287646, “Chemometric modeling of free radical scavenging activity of flavone derivatives” (Eur J Med Chem, 2010)

System: Radical scavenging activity
Test: Antioxidant activity assessed as DPPH radical scavenging activity
Type: functional

| Compound | ED50 [µM] |
| --- | --- |
| O=c1c(-c2ccccc2)coc2c(O)c(O)ccc12 | 29 |
| Cc1c(O)cc(C(=O)Cc2ccc(O)cc2)c(O)c1C | 33 |
| Cc1ccc2c(c1O)OCC(c1ccccc1)C2 (stereo not given) | 61 |
| Cc1cc(O)c(C(=O)Cc2ccccc2)cc1O | 43 |
| COc1cc2c(cc1O)CC(c1ccccc1)CO2 (stereo not given) | 49 |
| COc1ccc2c(=O)c(-c3ccc(O)c(O)c3)coc2c1O | 53 |
| O=c1c(-c2ccc(O)c(O)c2)coc2c(O)c(O)ccc12 | 16 |
| COc1cc2occ(-c3ccc(O)c(O)c3)c(=O)c2cc1OC | 46 |
| COc1ccc2c(c1O)OCC(c1ccccc1)C2 (stereo not given) | 168 |
| COc1cc(CC(=O)c2cc(OC)c(OC)cc2O)ccc1O | 84 |
| COc1ccc(CC(=O)c2cc(O)c(C)c(C)c2O)cc1 | 93 |
| COc1ccc(C2COc3cc(OC)c(O)cc3C2)cc1 (stereo not given) | 60 |
| Cc1ccc2c(=O)c(-c3ccc(O)c(O)c3)coc2c1O | 46 |
| COc1cc(-c2coc3cc(OC)c(O)cc3c2=O)ccc1O | 404 |
| Oc1ccc(C2COc3c(ccc(O)c3O)C2)cc1O (stereo not given) | 22 |
| COc1ccc(-c2coc3c(O)c(OC)ccc3c2=O)cc1 | 489 |
| Cc1cc(O)c(C(=O)Cc2ccc(O)c(O)c2)cc1O | 20 |
| Oc1ccc(C2COc3c(ccc(O)c3O)C2)cc1 (stereo not given) | 37 |
| COc1ccc(CC(=O)c2ccc(O)c(O)c2O)cc1OC | 63 |
| COc1ccc(C(=O)Cc2ccc(O)c(O)c2)c(O)c1O | 20 |
| COc1cc(CC(=O)c2cc(OC)c(O)cc2O)ccc1O | 129 |
| COc1ccc(CC(=O)c2cc(O)c(C)cc2O)cc1 | 23 |

| Compound | ED50 [µM] |
| --- | --- |
| COc1ccc(C2COc3c(ccc(O)c3O)C2)cc1OC (stereo not given) | 105 |
| COc1cc2c(cc1O)OCC(c1ccc(O)cc1)C2 (stereo not given) | 26 |
| COc1cc(-c2coc3cc(OC)c(OC)cc3c2=O)ccc1O | 722 |
| COc1cc(-c2coc3c(O)c(OC)ccc3c2=O)ccc1O | 228 |
| COc1cc2c(cc1O)OCC(c1ccccc1)C2 (stereo not given) | 29 |
| COc1cc(O)c(C(=O)Cc2ccccc2)cc1O | 51 |
| Cc1cc2occ(-c3ccc(O)c(O)c3)c(=O)c2cc1O | 23 |
| COc1ccc(CC(=O)c2ccc(O)c(O)c2O)cc1 | 38 |
| COc1ccc(C2COc3c(ccc(O)c3O)C2)cc1 (stereo not given) | 36 |
| COc1cc(CC(=O)c2cc(O)c(C)cc2O)ccc1O | 22 |
| COc1cc2c(cc1O)CC(c1ccc(O)cc1)CO2 (stereo not given) | 62 |
| Cc1ccc2c(c1O)OCC(c1ccc(O)cc1)C2 (stereo not given) | 111 |
| O=c1c(-c2ccc(O)c(O)c2)coc2cc(O)ccc12 | 30 |
| COc1ccc(C2COc3cc(O)cc(O)c3C2)cc1 (stereo not given) | 26 |
| O=c1c(-c2ccccc2)coc2cc(O)c(O)cc12 | 44 |
| COc1ccc(CC(=O)c2ccc(OC)c(O)c2O)cc1 | 44 |
| O=C(Cc1ccc(O)c(O)c1)c1ccc(O)cc1O | 20 |
| COc1cc(-c2coc3cc(C)c(O)cc3c2=O)ccc1O | 232 |
| COc1cc(O)c(C(=O)C(C)c2ccccc2)cc1O (stereo not given) | 48 |
| COc1cc(O)c(C(=O)Cc2ccc(OC)c(OC)c2)cc1O | 39 |
| COc1ccc(C2COc3c(ccc(C)c3O)C2)cc1 (stereo not given) | 52 |
| COc1ccc(CC(=O)c2cc(O)c(O)cc2O)cc1 | 32 |

| Compound | ED50 [µM] |
| --- | --- |
| Oc1ccc2c(c1O)OCC(c1ccccc1)C2 (stereo not given) | 37 |
| Cc1c(O)cc2c(=O)c(-c3ccc(O)c(O)c3)coc2c1C | 85 |
| CC(C(=O)c1ccc(O)c(O)c1O)c1ccc(O)cc1 (stereo not given) | 18 |
| COc1ccc(-c2coc3cc(O)c(OC)cc3c2=O)cc1 | 663 |
| COc1cc(CC(=O)c2ccc(O)cc2O)ccc1O | 180 |
| COc1cc(O)c(C(=O)C(C)c2ccc(O)cc2)cc1O (stereo not given) | 45 |
| Oc1ccc(C2COc3cc(O)cc(O)c3C2)cc1 (stereo not given) | 32 |
| COc1ccc(CC(=O)c2cc(O)c(OC)cc2O)cc1 | 31 |
| COc1ccc(-c2coc3cc(O)c(O)cc3c2=O)cc1 | 29 |
| COc1cc2occ(-c3ccc(O)c(O)c3)c(=O)c2cc1O | 36 |
| COc1ccc2c(=O)c(-c3ccccc3)coc2c1O | 812 |
| COc1ccc(C2COc3cc(O)c(OC)cc3C2)cc1 (stereo not given) | 26 |
| COc1ccc(C(=O)Cc2ccccc2)c(O)c1O | 20 |
| O=C(Cc1ccc(O)c(O)c1)c1ccc(O)c(O)c1O | 12 |
| Cc1c(O)cc(C(=O)Cc2ccccc2)c(O)c1C | 42 |
| O=C(Cc1ccc(O)cc1)c1ccc(O)c(O)c1O | 22 |
| O=C(Cc1ccccc1)c1ccc(O)c(O)c1O | 32 |
| O=C(Cc1ccccc1)c1cc(O)c(O)cc1O | 29 |
| COc1cc(-c2coc3cc(O)ccc3c2=O)ccc1O | 805 |
| Cc1c(O)cc2c(c1C)OCC(c1ccccc1)C2 (stereo not given) | 81 |
| COc1cc(CC(=O)c2ccc(O)c(O)c2O)ccc1O | 25 |
| COc1cc(O)c(C(=O)Cc2ccc(O)c(O)c2)cc1OC | 25 |

| Compound | ED50 [µM] |
| --- | --- |
| O=C(Cc1ccc(O)cc1)c1cc(O)c(O)cc1O | 27 |
| COc1cc2c(cc1O)CC(c1ccc(OC)c(OC)c1)CO2 (stereo not given) | 56 |
| COc1ccc(C2COc3c(ccc(OC)c3O)C2)cc1 (stereo not given) | 224 |
| COc1cc(-c2coc3cc(O)c(OC)cc3c2=O)ccc1O | 655 |
| COc1cc2c(cc1OC)OCC(c1ccc(O)c(O)c1)C2 (stereo not given) | 69 |
| COc1cc(O)c(C(=O)Cc2ccc(O)cc2)cc1O | 38 |
| COc1cc(CC(=O)c2ccc(OC)c(O)c2O)ccc1O | 28 |
| COc1ccc(C2COc3cc(C)c(O)cc3C2)cc1 (stereo not given) | 45 |
| Cc1cc(O)c(C(=O)Cc2ccc(O)cc2)cc1O | 31 |
| Oc1ccc2c(c1)OCC(c1ccc(O)c(O)c1)C2 (stereo not given) | 37 |
| COc1cc(-c2coc3c(O)c(C)ccc3c2=O)ccc1O | 476 |
| CC(C(=O)c1ccc(O)c(O)c1O)c1ccccc1 (stereo not given) | 23 |
| COc1cc(O)c(C(=O)Cc2ccc(O)c(O)c2)cc1O | 19 |
| COc1ccc(-c2coc3c(O)c(O)ccc3c2=O)cc1 | 51 |
| O=c1c(-c2ccc(O)cc2)coc2cc(O)c(O)cc12 | 29 |
| COc1cc(-c2coc3c(O)c(O)ccc3c2=O)ccc1O | 33 |
| O=c1c(-c2ccc(O)cc2)coc2c(O)c(O)ccc12 | 34 |
| COc1cc(CC(=O)c2cc(O)c(OC)cc2O)ccc1O | 26 |
| Cc1c(O)cc(C(=O)Cc2ccc(O)c(O)c2)c(O)c1C | 18 |
